Data reported in patent publication US5563151A, “Amino acid derivatives as paf-receptor antagonists” (British Biotech Pharmaceuticals limited, priority 1992, dated 1996).
pIC50: −log10 of the molar value.

Tests used:
[1] = molecular target: T1, PAF receptor (human platelet plasma membrane) (Homo sapiens, UniProt P25105); assay: Inhibition of [^3 H]-PAF Receptor Binding; settings: human platelet plasma membranes; [^3 H]-PAF 0.5 nM; 0° C., 1 hour, pH 7.0
T1 construct: Platelet concentrates were obtained from a hospital blood bank; from tissue; host or cells: human platelets (hospital blood bank concentrates), lysed platelet membranes
T1 sequence (P25105 whole entry): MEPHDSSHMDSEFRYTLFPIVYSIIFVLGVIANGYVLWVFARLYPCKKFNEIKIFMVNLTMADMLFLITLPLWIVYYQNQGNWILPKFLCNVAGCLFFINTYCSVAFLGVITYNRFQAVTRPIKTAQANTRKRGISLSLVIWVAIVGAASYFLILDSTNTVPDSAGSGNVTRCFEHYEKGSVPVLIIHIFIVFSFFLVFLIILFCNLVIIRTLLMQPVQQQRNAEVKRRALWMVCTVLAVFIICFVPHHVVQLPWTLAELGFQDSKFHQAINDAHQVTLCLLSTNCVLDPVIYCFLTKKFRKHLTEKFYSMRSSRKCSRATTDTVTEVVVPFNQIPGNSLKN
Experimental: (§1) Compounds of general formula I inhibit PAF-induced functions in both the cellular and tissue levels by changing the PAF binding to its specific receptor site. The ability of compounds of general formula I to inhibit the binding of PAF to its specific receptor binding site on human platelet plasma membranes was measured according to Example 150. The ability of compounds of general formula I to reverse the hypotension caused by an infusion of PAF in rats was measured according Example 151.
Inhibition of [^3 H]-PAF Receptor Binding
The inhibition of [^3 H]-PAF binding to human platelet plasma membrane by compounds of general formula I was determined by isotopic labelling and filtration techniques. Platelet concentrates were obtained from a hospital blood bank. These platelet concentrates (500-2500 ml.) were centrifuged at 800 rpm for 10 minutes in a SORVALL RC3B centrifuge to remove the red blood cells present. (The word SORVALL is a trade mark.) The supernatant was subsequently centrifuged at 3,000 rpm in a SORVALL RC3B centrifuge to pellet the platelets present. The platelet rich pellets were resuspended in a minimum volume of buffer (150 mM NaCl, 10 mM Tris, 2 mM EDTA, pH 7.5) and layered onto Ficoll-Paque gradients, 9 ml platelet concentrate to 2 ml Ficoll, and centrifuged at 1,900 rpm for 15 minutes in a SORVALL RT6000 centrifuge. This step removes the residual red blood cells and other nonspecific material such as lymphocytes from the preparation. The platelets which form a band between the plasma and the Ficoll were removed, resuspended in the above buffer and centrifuged at 3,000 rpm for 10 minutes in a SORVALL RT6000 centrifuge. […]
The assay was conducted by preparing a series of Tris-buffered solutions of the selected antagonist of predetermined concentrations. […] Each washed residue was dried under vacuum on a sampling manifold and placed into vials containing 20 ml of OPTIPHASE MP scintillation fluid and the radioactivity counted in a liquid scintillation counter. […]

PAF-induced hypotension = assay: Inhibition of PAF-Induced Hypotension in the Rat; type: in vivo, rat (male Sprague-Dawley); settings: iv, i.v. bolus, PAF 100 ng/kg/min i.v. infusion, anaesthetised rats, read-out: ED50 (dose to cause a 50% reversal of the hypotensive PAF response)
Experimental: as §1
Inhibition of PAF-Induced Hypotension in the Rat
Male Sprague-Dawley rats (300-350 g) were anaesthetised with a mixture of sodium pentobarbitone, 22.5 mg/kg and thiopental 62.5 mg/kg. Through a midline incision in the neck, the trachea was cannulated and the animals breathed spontaneously. A carotid artery was cannulated for the measurement of blood pressure and this signal was used to trigger a rate meter to measure heart rate. Both jugular veins were cannulated: one for the infusion of PAF and the other for the bolus administration of test compounds.
PAF, 100 ng/kg/min was infused i.v. until a sustained fall in mean blood pressure of 50 mmHg was achieved. […] The peak of this reversal was measured and the dose to cause a 50% reversal of the hypotensive PAF response (ED50) calculated by straight line interpolation and the results are presented in Table 2.

| SMILES | pIC50 [1] | ED50 (PAF-induced hypotension) |
| --- | --- | --- |
| CCOC(=O)[C@H](CC(C)C)NC(=O)CCCCCn1c(C)nc2cnccc21 [Example 1B, N-6-(2-methylimidazo[4,5-c]pyridin-1-yl)hexanoyl-L-leucine ethyl ester] | 7.82 |  |
| CCOC(=O)[C@H](CC(C)C)NC(=O)CCCn1c(C)nc2cnccc21 [Example 11B, N-4-(2-methylimidazo[4,5-c]pyridin-1-yl)butanoyl-L-leucine ethyl ester] | 8.52 | 0.0305 mg/kg |
| CCOC[C@H](CC(C)C)NS(=O)(=O)CCCn1c(C)nc2cnccc21 [Example 33B, N-4-(2-methylimidazo[4,5-c]pyridin-1-yl)propylsulphonyl-L-leucinyl ethyl ether] |  | 0.0018 mg/kg |
| CCOC(=O)[C@H](CC(C)C)NC(=O)CCCCCCCCCCn1c(C)nc2cnccc21 [Example 98B, N-11-(2-methylimidazo[4,5-c]pyridin-1-yl)undecanoyl-L-leucine ethyl ester] | 9.00 |  |
